In patent US8846110B2, “Polymeric systems for the delivery of anticancer drugs” (Rexahn Pharmaceuticals, Inc., priority 2009, dated 2014):
Each block holds one compound with its values, some of them ahead of it.

Tests used:
HCT116 (colon) = experiment: In vitro cell proliferation (SRB) assay, HCT116; type: cell-based; conditions: Homo sapiens, HCT-116; drug equivalent; 96 hours incubation; SRB method
Method: (§1) Cancer cell lines to determine the effect of polymer-drug conjugates were obtained from the following sources: Human MDA-MB-231 (breast), HCT116 (colon) and PANC-1 (pancreas), from the American Type Culture Collection (ATCC) (Manassas, Va.). UMRC2 (kidney) from United States National Cancer Institute (Bethesda, Md.). Cells were maintained in Dulbecco's modified Eagle's medium (“DMEM”, Invitrogen) supplemented with 10% FBS, P/S and 10 mM HEPES. All cells were incubated at 37° C. under humidified 5% CO2.
(§2) The growth inhibition assay of polymer-drug conjugates against human cancer cell lines was performed using the Sulforhodamine B (“SRB”) method (Skehan et al., J. National Cancer Institute, 82: 1107-1112 (1990)). […] After 5 minutes agitation in 10 mM Tris solution, the absorbance of each well was measured at 530 nm using Benchmark Plus Microplate reader (Bio-Rad Laboratories, Hercules, Calif.). The absorbance value provides a direct measure of the number of live cells post-treatment with copolymer-drug conjugates.
(§3) To translate the OD530 values into the number of live cells in each well, the OD530 values were compared to those on standard OD530—versus—cell number curves generated for each cell line. The percent survival was calculated using the formula: % Survival=live cell number [test]/live cell number [control]×100
(§4) The IC50 values were calculated by non-linear regression analysis.

MDA-MB-231 (breast) = experiment: In vitro cell proliferation (SRB) assay, MDA-MB-231; type: cell-based; conditions: Homo sapiens, drug equivalent, 96 hours incubation, SRB method
Method: as §1, §2, §3, §4

Caki-1 = experiment: In vitro cell proliferation (SRB) assay, Caki-1; type: cell-based; conditions: Homo sapiens, drug equivalent, 96 hours incubation, SRB method
[1] = molecular target: glycosylphosphatidylinositol-linked folate receptor (FR); conditions: high affinity folate receptor; cited from earlier work
reduced folate carrier = molecular target: T1, reduced folate carrier (Homo sapiens, UniProt P41440); conditions: low affinity reduced folate carrier, cellular uptake; cited from earlier work
T1 sequence (P41440 1-591): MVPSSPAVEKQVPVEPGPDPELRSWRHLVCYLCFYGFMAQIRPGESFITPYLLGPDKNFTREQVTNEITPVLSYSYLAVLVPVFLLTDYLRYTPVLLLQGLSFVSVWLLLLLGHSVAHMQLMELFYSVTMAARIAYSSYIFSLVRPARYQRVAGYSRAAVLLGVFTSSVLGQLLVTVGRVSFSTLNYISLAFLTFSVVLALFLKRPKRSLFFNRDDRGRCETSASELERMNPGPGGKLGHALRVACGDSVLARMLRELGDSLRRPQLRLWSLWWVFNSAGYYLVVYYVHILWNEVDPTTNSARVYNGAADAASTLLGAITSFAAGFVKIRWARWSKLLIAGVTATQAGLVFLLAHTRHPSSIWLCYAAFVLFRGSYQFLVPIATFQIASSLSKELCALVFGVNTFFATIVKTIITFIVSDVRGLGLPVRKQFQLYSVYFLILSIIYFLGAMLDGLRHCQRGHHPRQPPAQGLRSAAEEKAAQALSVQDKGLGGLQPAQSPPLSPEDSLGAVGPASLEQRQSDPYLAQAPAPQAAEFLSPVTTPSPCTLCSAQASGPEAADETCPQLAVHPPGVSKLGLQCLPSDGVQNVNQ

mucin-1 = mucin-1 (Homo sapiens, UniProt P15941); conditions: specific ligand of mucin-1; cited from earlier work
Sequence of mucin-1 (P15941 24-1255): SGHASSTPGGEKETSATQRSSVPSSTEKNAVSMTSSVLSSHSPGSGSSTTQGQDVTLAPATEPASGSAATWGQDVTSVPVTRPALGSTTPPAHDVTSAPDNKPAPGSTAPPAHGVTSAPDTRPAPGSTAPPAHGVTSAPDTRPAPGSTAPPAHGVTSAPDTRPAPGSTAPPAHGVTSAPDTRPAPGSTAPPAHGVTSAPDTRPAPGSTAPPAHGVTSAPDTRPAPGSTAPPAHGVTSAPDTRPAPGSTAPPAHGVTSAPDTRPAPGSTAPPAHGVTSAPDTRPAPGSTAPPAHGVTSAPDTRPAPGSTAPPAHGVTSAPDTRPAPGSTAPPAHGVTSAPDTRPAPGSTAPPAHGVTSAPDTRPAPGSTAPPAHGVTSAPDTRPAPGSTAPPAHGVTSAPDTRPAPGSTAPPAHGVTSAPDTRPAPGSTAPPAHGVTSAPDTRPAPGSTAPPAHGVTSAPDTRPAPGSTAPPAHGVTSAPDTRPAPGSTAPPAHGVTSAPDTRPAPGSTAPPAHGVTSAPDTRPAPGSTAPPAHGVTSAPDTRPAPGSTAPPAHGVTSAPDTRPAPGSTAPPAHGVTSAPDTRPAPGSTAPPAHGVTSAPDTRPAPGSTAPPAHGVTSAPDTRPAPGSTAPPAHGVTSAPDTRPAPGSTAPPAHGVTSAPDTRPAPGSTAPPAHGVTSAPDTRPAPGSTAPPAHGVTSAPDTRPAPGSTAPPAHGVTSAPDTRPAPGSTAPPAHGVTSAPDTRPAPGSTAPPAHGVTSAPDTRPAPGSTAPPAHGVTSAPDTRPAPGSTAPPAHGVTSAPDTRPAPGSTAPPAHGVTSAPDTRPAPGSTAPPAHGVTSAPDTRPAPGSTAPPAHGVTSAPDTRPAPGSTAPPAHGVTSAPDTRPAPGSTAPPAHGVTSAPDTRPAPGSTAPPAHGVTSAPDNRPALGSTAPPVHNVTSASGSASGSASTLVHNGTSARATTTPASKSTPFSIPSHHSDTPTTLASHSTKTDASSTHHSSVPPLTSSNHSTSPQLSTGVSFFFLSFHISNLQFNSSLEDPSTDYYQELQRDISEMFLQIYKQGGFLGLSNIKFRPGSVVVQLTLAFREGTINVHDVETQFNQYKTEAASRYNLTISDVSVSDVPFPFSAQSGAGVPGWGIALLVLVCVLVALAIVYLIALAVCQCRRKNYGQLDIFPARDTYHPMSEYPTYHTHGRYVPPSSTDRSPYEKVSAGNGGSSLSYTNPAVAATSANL

- IC50 (HCT116 (colon)): 0.00058 µM
- IC50 (MDA-MB-231 (breast)): 0.0015 µM
Compound: CC(=O)O[C@@]12CO[C@@H]1C[C@H](O)[C@@]1(C)C(=O)[C@H](O)C3=C(C)[C@@H](OC(=O)[C@H](O)[C@@H](NC(=O)OC(C)(C)C)c4ccccc4)C[C@@](O)([C@@H](OC(=O)c4ccccc4)[C@H]21)C3(C)C [Docetaxel, docetaxel]
- IC50 (Caki-1): 0.001 µM

Compound: Nc1nc2ncc(CNc3ccc(C(=O)N[C@@H](CCC(=O)O)C(=O)O)cc3)nc2c(=O)[nH]1 [folates, Folic acid]
- Kd [1]: ~0.1 nM
- Km (reduced folate carrier): ~1000 nM

Compound: YCAREPPTRTFAYWG [EPPT1]
- Kd (mucin-1): 20 µM
